Patent US8642544B2, “N-terminus conformationally constrained GLP-1 receptor agonist compounds” (Amylin Pharmaceuticals, LLC, priority 2009, dated 2014)
Where two headings read alike, the source gives them in different places.

Target: T1, GLP-1 receptor (Rattus norvegicus, UniProt P32301)
T1 construct: 96-well assay plate containing RIN m5f cell membranes in an ATP/GTP mixture; endogenous in cells; host or cells: RIN m5f cell membranes
T1 sequence (P32301 22-463): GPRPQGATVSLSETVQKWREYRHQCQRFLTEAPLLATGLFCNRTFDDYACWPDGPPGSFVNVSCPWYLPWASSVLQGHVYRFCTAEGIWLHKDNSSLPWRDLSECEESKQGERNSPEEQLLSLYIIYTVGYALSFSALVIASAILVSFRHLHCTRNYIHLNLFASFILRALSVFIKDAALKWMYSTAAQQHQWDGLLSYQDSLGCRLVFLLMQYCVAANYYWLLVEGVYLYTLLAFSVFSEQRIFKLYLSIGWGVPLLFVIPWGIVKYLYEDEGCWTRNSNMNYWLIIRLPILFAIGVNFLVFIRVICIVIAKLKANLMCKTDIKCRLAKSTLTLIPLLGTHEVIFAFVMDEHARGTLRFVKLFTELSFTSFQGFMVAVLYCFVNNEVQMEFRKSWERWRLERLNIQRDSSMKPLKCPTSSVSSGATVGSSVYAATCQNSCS
Experiment: in vitro functional assay at the GLP-1 receptor (cyclase, cAMP production in RIN m5f cell membranes)
Assay type: biochemical
Protocol: The compounds shown in Table 1 below were analyzed in an in vitro functional assay at the GLP-1 receptor. The assay was conducted as follows: Membrane fractions were prepared from confluent cultures of RIN m5f cells. Compounds were serially diluted with an assay buffer, and then added to a 96-well assay plate containing RIN m5f cell membranes in an ATP/GTP mixture. Cyclase activities were determined by measuring the production of cAMP induced through GLP-1 receptor activation. Quantification of cAMP production was achieved through a competitive chemiluminescence assay with a biotinylated-cAMP probe using Perkin Elmer Fusion™-Alpha Microplate Analyzer (AlphaScreen™ technology). The compound EC50 values were obtained through fitting the concentration-response curves to a four-parameter logistic equation within GraphPad PRISM® software.

[1] = Cyclase GLP-1 Receptor EC50 (nM), Table 1, RIN m5f cell membranes, cAMP production (AlphaScreen)

SMILES | EC50 [1] | other results
CC[C@H](C)[C@H](NC(=O)[C@H](Cc1ccccc1)NC(=O)[C@H](CC(C)C)NC(=O)[C@H](CCCNC(=N)N)NC(=O)[C@@H](NC(=O)[C@H](C)NC(=O)[C@H](CCC(=O)O)NC(=O)[C@H](CCC(=O)O)NC(=O)[C@H](CCC(=O)O)NC(=O)[C@H](CC(C)C)NC(=O)[C@H](CCC(N)=O)NC(=O)[C@H](CCCCN)NC(=O)[C@H](CO)NC(=O)[C@H](CC(C)C)NC(=O)[C@H](CC(=O)O)NC(=O)[C@H](CO)NC(=O)[C@@H](NC(=O)[C@H](Cc1ccccc1)NC(=O)[C@@H](NC(=O)[C@@H]1CSSC[C@@H](NC(=O)[C@@H](N)Cc2c[nH]cn2)C(=O)N2CCC[C@H]2C(=O)N1)[C@@H](C)O)[C@@H](C)O)C(C)C)C(=O)N[C@@H](CCC(=O)O)C(=O)N[C@@H](Cc1ccccc1)C(=O)N[C@@H](CC(C)C)C(=O)N[C@@H](CCCCN)C(=O)N[C@@H](CC(N)=O)C(N)=O [8B] | 1.26 nM | –
CC[C@H](C)[C@H](NC(=O)[C@H](Cc1ccccc1)NC(=O)[C@H](CC(C)C)NC(=O)[C@H](CCCNC(=N)N)NC(=O)[C@@H](NC(=O)[C@H](C)NC(=O)[C@H](CCC(=O)O)NC(=O)[C@H](CCC(=O)O)NC(=O)[C@H](CCC(=O)O)NC(=O)[C@H](CCSC)NC(=O)[C@H](CCC(N)=O)NC(=O)[C@H](CCCCN)NC(=O)[C@H](CO)NC(=O)[C@H](CC(C)C)NC(=O)[C@H](CC(=O)O)NC(=O)[C@H](CO)NC(=O)[C@@H](NC(=O)[C@H](Cc1ccccc1)NC(=O)[C@@H](NC(=O)CNC(=O)[C@@H]1CCCN1C(=O)[C@H](C)NC(=O)CCc1c[nH]cn1)[C@@H](C)O)[C@@H](C)O)C(C)C)C(=O)N[C@@H](CCC(=O)O)C(=O)N[C@@H](Cc1c[nH]c2ccccc12)C(=O)N[C@@H](CC(C)C)C(=O)N[C@@H](CCCCN)C(=O)N[C@@H](CC(N)=O)C(=O)N[C@@H](CCCCNC(=O)CCCC[C@@H]1SC[C@@H]2NC(=O)N[C@@H]21)C(N)=O [Compound 24D] | – | EC50 (Cyclase GLP-1 Receptor EC50 (nM), Table 3, methods of Example 16): 0.77 nM
CC[C@H](C)[C@H](NC(=O)[C@H](Cc1ccccc1)NC(=O)[C@H](CC(C)C)NC(=O)[C@H](CCCNC(=N)N)NC(=O)[C@@H](NC(=O)[C@H](C)NC(=O)[C@H](CCC(=O)O)NC(=O)[C@H](CCC(=O)O)NC(=O)[C@H](CCC(=O)O)NC(=O)[C@H](CC(C)C)NC(=O)[C@H](CCC(N)=O)NC(=O)[C@H](CCCCN)NC(=O)[C@H](CO)NC(=O)[C@H](CC(C)C)NC(=O)[C@H](CC(=O)O)NC(=O)[C@H](CO)NC(=O)[C@@H](NC(=O)[C@H](Cc1ccccc1)NC(=O)[C@@H](NC(=O)[C@H]1CSSC[C@H](NC(=O)[C@@H](N)Cc2c[nH]cn2)C(=O)N2CCC[C@H]2C(=O)N1)[C@@H](C)O)[C@@H](C)O)C(C)C)C(=O)N[C@@H](CCC(=O)O)C(=O)N[C@@H](Cc1ccccc1)C(=O)N[C@@H](CC(C)C)C(=O)N[C@@H](CCCCN)C(=O)N[C@@H](CC(N)=O)C(N)=O [8D] | 106 nM | –
CC[C@H](C)[C@H](NC(=O)[C@H](Cc1ccccc1)NC(=O)[C@H](CC(C)C)NC(=O)[C@H](CCCNC(=N)N)NC(=O)[C@@H](NC(=O)[C@H](C)NC(=O)[C@H](CCC(=O)O)NC(=O)[C@H](CCC(=O)O)NC(=O)[C@H](CCC(=O)O)NC(=O)[C@H](CC(C)C)NC(=O)[C@H](CCC(N)=O)NC(=O)[C@H](CCCCN)NC(=O)[C@H](CO)NC(=O)[C@H](CC(C)C)NC(=O)[C@H](CC(=O)O)NC(=O)[C@H](CO)NC(=O)[C@@H](NC(=O)[C@H](Cc1ccccc1)NC(=O)[C@@H](NC(=O)CNC(=O)[C@@H]1CCCN1C(=O)[C@H]1CSC([C@@H](N)Cc2c[nH]cn2)N1)[C@@H](C)O)[C@@H](C)O)C(C)C)C(=O)N[C@@H](CCC(=O)O)C(=O)N[C@@H](Cc1ccccc1)C(=O)N[C@@H](CC(C)C)C(=O)N[C@@H](CCCCN)C(=O)N[C@@H](CC(N)=O)C(N)=O (some centres unmarked) [Compound in Figure 17B] | 668 nM | –
CC[C@H](C)[C@H](NC(=O)[C@H](Cc1ccccc1)NC(=O)[C@H](CC(C)C)NC(=O)[C@H](CCCNC(=N)N)NC(=O)[C@@H](NC(=O)[C@H](C)NC(=O)[C@H](CCC(=O)O)NC(=O)[C@H](CCC(=O)O)NC(=O)[C@H](CCC(=O)O)NC(=O)[C@H](CC(C)C)NC(=O)[C@H](CCC(N)=O)NC(=O)[C@H](CCCCN)NC(=O)[C@H](CO)NC(=O)[C@H](CC(C)C)NC(=O)[C@H](CC(=O)O)NC(=O)[C@H](CO)NC(=O)[C@@H](NC(=O)[C@H](Cc1ccccc1)NC(=O)[C@@H](NC(=O)CN1CC[C@@H](C(=O)O)[C@H](NC(=O)[C@H](C)NC(=O)[C@@H](N)Cc2c[nH]cn2)C1=O)[C@@H](C)O)[C@@H](C)O)C(C)C)C(=O)N[C@@H](CCC(=O)O)C(=O)N[C@@H](Cc1c[nH]c2ccccc12)C(=O)N[C@@H](CC(C)C)C(=O)N[C@@H](CCCCN)C(=O)N[C@@H](CCC(N)=O)C(=O)NCC(=O)NCC(=O)N1CCC[C@H]1C(=O)N[C@@H](CO)C(=O)N[C@@H](CCCCN)C(=O)N[C@@H](CCC(=O)O)C(=O)N[C@H](C(=O)N[C@H](C(=O)N[C@@H](CO)C(=O)O)[C@@H](C)CC)[C@@H](C)CC [16B] | 0.18 nM | –
CC[C@H](C)[C@H](NC(=O)[C@H](Cc1ccccc1)NC(=O)[C@H](CC(C)C)NC(=O)[C@H](CCCNC(=N)N)NC(=O)[C@@H](NC(=O)[C@H](C)NC(=O)[C@H](CCC(=O)O)NC(=O)[C@H](CCC(=O)O)NC(=O)[C@H](CCC(=O)O)NC(=O)[C@H](CC(C)C)NC(=O)[C@H](CCC(N)=O)NC(=O)[C@H](CCCCN)NC(=O)[C@H](CO)NC(=O)[C@H](CC(C)C)NC(=O)[C@H](CC(=O)O)NC(=O)[C@H](CO)NC(=O)[C@@H](NC(=O)[C@H](Cc1ccccc1)NC(=O)[C@@H](NC(=O)CNC(=O)[C@@H]1CCCN1C(=O)[C@@H](NC(=O)[C@@H](N)Cc1c[nH]cn1)C(C)C)[C@@H](C)O)[C@@H](C)O)C(C)C)C(=O)N[C@@H](CCC(=O)O)C(=O)N[C@@H](Cc1ccccc1)C(=O)N[C@@H](CC(C)C)C(=O)N[C@@H](CCCCN)C(=O)N[C@@H](CC(N)=O)C(N)=O [6C] | 152 nM | –
CC[C@H](C)[C@H](NC(=O)[C@H](Cc1ccccc1)NC(=O)[C@H](CC(C)C)NC(=O)[C@H](CCCNC(=N)N)NC(=O)[C@@H](NC(=O)[C@H](C)NC(=O)[C@H](CCC(=O)O)NC(=O)[C@H](CCC(=O)O)NC(=O)[C@H](CCC(=O)O)NC(=O)[C@H](CC(C)C)NC(=O)[C@H](CCC(N)=O)NC(=O)[C@H](CCCCN)NC(=O)[C@H](CO)NC(=O)[C@H](CC(C)C)NC(=O)[C@H](CC(=O)O)NC(=O)[C@H](CO)NC(=O)[C@@H](NC(=O)[C@H](Cc1ccccc1)NC(=O)[C@@H](NC(=O)[C@H]1CSSC[C@@H](NC(=O)[C@@H](N)Cc2c[nH]cn2)C(=O)N2CCC[C@H]2C(=O)N1)[C@@H](C)O)[C@@H](C)O)C(C)C)C(=O)N[C@@H](CCC(=O)O)C(=O)N[C@@H](Cc1ccccc1)C(=O)N[C@@H](CC(C)C)C(=O)N[C@@H](CCCCN)C(=O)N[C@@H](CC(N)=O)C(N)=O [8C] | 969 nM | –
CC[C@H](C)[C@H](NC(=O)[C@H](Cc1ccccc1)NC(=O)[C@H](CC(C)C)NC(=O)[C@H](CCCNC(=N)N)NC(=O)[C@@H](NC(=O)[C@H](C)NC(=O)[C@H](CCC(=O)O)NC(=O)[C@H](CCC(=O)O)NC(=O)[C@H](CCC(=O)O)NC(=O)[C@H](CC(C)C)NC(=O)[C@H](CCC(N)=O)NC(=O)[C@H](CCCCN)NC(=O)[C@H](CO)NC(=O)[C@H](CC(C)C)NC(=O)[C@H](CC(=O)O)NC(=O)[C@H](CO)NC(=O)[C@@H](NC(=O)[C@H](Cc1ccccc1)NC(=O)[C@@H](NC(=O)CNC(=O)[C@@H]1CSCN1C(=O)CNC(=O)[C@@H](N)Cc1c[nH]cn1)[C@@H](C)O)[C@@H](C)O)C(C)C)C(=O)N[C@@H](CCC(=O)O)C(=O)N[C@@H](Cc1ccccc1)C(=O)N[C@@H](CC(C)C)C(=O)N[C@@H](CCCCN)C(=O)N[C@@H](CC(N)=O)C(N)=O [5C] | – | EC50 (Table 1, RIN m5f cell membranes, cAMP production (AlphaScreen), read-out: Cyclase GLP-1 Receptor EC50): 1.06 nM
